Values after ≈ are worked out from the molar mass of the structure shown.
Columns and labels:
NIH3T3 = experiment: Cytotoxicity against mouse NIH/3T3 cells after 24 hrs by MTT assay; format: cell-based; settings: NIH3T3, 24 h
Candida albicans = experiment: Antimicrobial activity against Candida albicans ATCC 22019 after 18 to 24 hrs by microbroth dilution method; format: functional
Fusarium culmorum = experiment: Antimicrobial activity against wild type Fusarium culmorum after 48 to 72 hrs by microbroth dilution method; format: functional
Fusarium verticillioides = experiment: Antimicrobial activity against Fusarium moniliforme NRRL 1866 after 48 to 72 hrs by microbroth dilution method; format: functional
Fusarium solani = experiment: Antimicrobial activity against Fusarium solani NRRL 13414 after 48 to 72 hrs by microbroth dilution method; format: functional
Aspergillus ochraceus = experiment: Antimicrobial activity against Aspergillus ochraceus NRRL 3174 after 48 to 72 hrs by microbroth dilution method; format: functional
Trichoderma harzianum = experiment: Antimicrobial activity against Trichoderma harzianum NRRL 20565 after 48 to 72 hrs by microbroth dilution method; format: functional
Penicillium chrysogenum = experiment: Antimicrobial activity against Penicillium chrysogenum NRRL 1951 after 48 to 72 hrs by microbroth dilution method; format: functional
Aspergillus parasiticus = experiment: Antimicrobial activity against Aspergillus parasiticus NRRL 465 after 48 to 72 hrs by microbroth dilution method; format: functional
Bacillus subtilis = experiment: Antimicrobial activity against Bacillus subtilis NRS-744 after 18 to 24 hrs by microbroth dilution method; format: functional
Micrococcus luteus = experiment: Antimicrobial activity against Micrococcus luteus NRLL B-4375 after 18 to 24 hrs by microbroth dilution method; format: functional
Pseudomonas aeruginosa = experiment: Antimicrobial activity against Pseudomonas aeruginosa […] after 18 to 24 hrs by microbroth dilution method; format: functional
Escherichia coli = experiment: Antimicrobial activity against Escherichia coli ATCC 25922 after 18 to 24 hrs by microbroth dilution method; format: functional
Listeria monocytogenes = experiment: Antimicrobial activity against Listeria monocytogenes ATCC 7644 after 18 to 24 hrs by microbroth dilution method; format: functional
Staphylococcus aureus = experiment: Antimicrobial activity against Staphylococcus aureus NRRL B-767 after 18 to 24 hrs by microbroth dilution method; format: functional

Structure (SMILES)	IC50 (NIH3T3) [µg/mL]	MIC (Candida albicans) [µg/mL]	MIC (Fusarium culmorum) [µg/mL]	MIC (Fusarium verticillioides) [µg/mL]	MIC (Fusarium solani) [µg/mL]	MIC (Aspergillus ochraceus) [µg/mL]	MIC (Trichoderma harzianum) [µg/mL]	MIC (Penicillium chrysogenum) [µg/mL]	MIC (Aspergillus parasiticus) [µg/mL]	MIC (Bacillus subtilis) [µg/mL]	MIC (Micrococcus luteus) [µg/mL]	MIC (Pseudomonas aeruginosa) [µg/mL]	MIC (Escherichia coli) [µg/mL]	MIC (Listeria monocytogenes) [µg/mL]	MIC (Staphylococcus aureus) [µg/mL]
COc1ccc(-c2cs/c(=N/NC(=O)CSc3nnnn3-c3ccccc3)n2-c2ccccc2)cc1	11.7 (≈ 22.7 µM)	250 (≈ 485 µM)	125 (≈ 242 µM)	250 (≈ 485 µM)	250 (≈ 485 µM)	250 (≈ 485 µM)	125 (≈ 242 µM)	250 (≈ 485 µM)	250 (≈ 485 µM)	500 (≈ 970 µM)	125 (≈ 242 µM)	250 (≈ 485 µM)	250 (≈ 485 µM)	250 (≈ 485 µM)	250 (≈ 485 µM)
O=C(CSc1ncccn1)N/N=c1/scc(-c2ccccc2)n1-c1ccccc1	107 (≈ 254 µM)	250 (≈ 596 µM)	250 (≈ 596 µM)	250 (≈ 596 µM)	250 (≈ 596 µM)	250 (≈ 596 µM)	250 (≈ 596 µM)	250 (≈ 596 µM)	250 (≈ 596 µM)	500 (≈ 1190 µM)	250 (≈ 596 µM)	250 (≈ 596 µM)	250 (≈ 596 µM)	250 (≈ 596 µM)	250 (≈ 596 µM)
Cn1cnnc1SCC(=O)N/N=c1/scc(-c2ccc(Cl)cc2)n1-c1ccccc1	51.7 (≈ 113 µM)	250 (≈ 547 µM)	250 (≈ 547 µM)	250 (≈ 547 µM)	250 (≈ 547 µM)	250 (≈ 547 µM)	125 (≈ 274 µM)	250 (≈ 547 µM)	250 (≈ 547 µM)	125 (≈ 274 µM)	125 (≈ 274 µM)	250 (≈ 547 µM)	125 (≈ 274 µM)	250 (≈ 547 µM)	125 (≈ 274 µM)
Cn1nnnc1SCC(=O)N/N=c1/scc(-c2ccc(F)cc2)n1-c1ccccc1	113 (≈ 257 µM)	250 (≈ 566 µM)	250 (≈ 566 µM)	250 (≈ 566 µM)	250 (≈ 566 µM)	250 (≈ 566 µM)	250 (≈ 566 µM)	250 (≈ 566 µM)	250 (≈ 566 µM)	250 (≈ 566 µM)	250 (≈ 566 µM)	250 (≈ 566 µM)	125 (≈ 283 µM)	250 (≈ 566 µM)	250 (≈ 566 µM)
Cc1nnc(SCC(=O)N/N=c2/scc(-c3ccc(Br)cc3)n2-c2ccccc2)s1	55 (≈ 106 µM)	250 (≈ 482 µM)	250 (≈ 482 µM)	250 (≈ 482 µM)	250 (≈ 482 µM)	250 (≈ 482 µM)	125 (≈ 241 µM)	250 (≈ 482 µM)	250 (≈ 482 µM)	500 (≈ 964 µM)	250 (≈ 482 µM)	250 (≈ 482 µM)	250 (≈ 482 µM)	250 (≈ 482 µM)	500 (≈ 964 µM)
Cn1nnnc1SCC(=O)N/N=c1/scc(-c2ccc(Br)cc2)n1-c1ccccc1	19.3 (≈ 38.4 µM)	250 (≈ 498 µM)	125 (≈ 249 µM)	250 (≈ 498 µM)	250 (≈ 498 µM)	250 (≈ 498 µM)	125 (≈ 249 µM)	250 (≈ 498 µM)	250 (≈ 498 µM)	250 (≈ 498 µM)	125 (≈ 249 µM)	250 (≈ 498 µM)	250 (≈ 498 µM)	250 (≈ 498 µM)	250 (≈ 498 µM)
Cc1nnc(SCC(=O)N/N=c2/scc(-c3ccc(C#N)cc3)n2-c2ccccc2)s1	< 3.9	250 (≈ 538 µM)	250 (≈ 538 µM)	250 (≈ 538 µM)	250 (≈ 538 µM)	250 (≈ 538 µM)	125 (≈ 269 µM)	250 (≈ 538 µM)	250 (≈ 538 µM)	250 (≈ 538 µM)	250 (≈ 538 µM)	250 (≈ 538 µM)	250 (≈ 538 µM)	250 (≈ 538 µM)	250 (≈ 538 µM)
Cc1nnc(SCC(=O)N/N=c2/scc(-c3ccc([N+](=O)[O-])cc3)n2-c2ccccc2)s1	177 (≈ 365 µM)	250 (≈ 516 µM)	250 (≈ 516 µM)	250 (≈ 516 µM)	250 (≈ 516 µM)	250 (≈ 516 µM)	250 (≈ 516 µM)	250 (≈ 516 µM)	250 (≈ 516 µM)	250 (≈ 516 µM)	250 (≈ 516 µM)	250 (≈ 516 µM)	250 (≈ 516 µM)	250 (≈ 516 µM)	500 (≈ 1030 µM)
COc1ccc(-c2cs/c(=N/NC(=O)CSc3nncn3C)n2-c2ccccc2)cc1	167 (≈ 368 µM)	250 (≈ 552 µM)	250 (≈ 552 µM)	250 (≈ 552 µM)	250 (≈ 552 µM)	250 (≈ 552 µM)	250 (≈ 552 µM)	250 (≈ 552 µM)	250 (≈ 552 µM)	250 (≈ 552 µM)	250 (≈ 552 µM)	250 (≈ 552 µM)	250 (≈ 552 µM)	250 (≈ 552 µM)	250 (≈ 552 µM)
N#Cc1ccc(-c2cs/c(=N/NC(=O)CSc3ncccn3)n2-c2ccccc2)cc1	< 3.9	250 (≈ 562 µM)	250 (≈ 562 µM)	250 (≈ 562 µM)	250 (≈ 562 µM)	250 (≈ 562 µM)	250 (≈ 562 µM)	250 (≈ 562 µM)	250 (≈ 562 µM)	250 (≈ 562 µM)	250 (≈ 562 µM)	125 (≈ 281 µM)	250 (≈ 562 µM)	250 (≈ 562 µM)	250 (≈ 562 µM)

— ChEMBL document CHEMBL3124777, “Synthesis and biological evaluation of thiazoline derivatives as new antimicrobial and anticancer agents” (Eur J Med Chem, 2014)
